Experimental data reported in PMC7616177, “From structure to clinic: Design of a muscarinic M1 receptor agonist with the potential to treat Alzheimer’s disease” (Cell, 2021).

Legend:
M4-receptor = target: T1, M4-receptor (Homo sapiens, UniProt P08173); experiment: [3H]-NMS equilibrium radioligand binding, M4
T1 sequence (P08173 1-479): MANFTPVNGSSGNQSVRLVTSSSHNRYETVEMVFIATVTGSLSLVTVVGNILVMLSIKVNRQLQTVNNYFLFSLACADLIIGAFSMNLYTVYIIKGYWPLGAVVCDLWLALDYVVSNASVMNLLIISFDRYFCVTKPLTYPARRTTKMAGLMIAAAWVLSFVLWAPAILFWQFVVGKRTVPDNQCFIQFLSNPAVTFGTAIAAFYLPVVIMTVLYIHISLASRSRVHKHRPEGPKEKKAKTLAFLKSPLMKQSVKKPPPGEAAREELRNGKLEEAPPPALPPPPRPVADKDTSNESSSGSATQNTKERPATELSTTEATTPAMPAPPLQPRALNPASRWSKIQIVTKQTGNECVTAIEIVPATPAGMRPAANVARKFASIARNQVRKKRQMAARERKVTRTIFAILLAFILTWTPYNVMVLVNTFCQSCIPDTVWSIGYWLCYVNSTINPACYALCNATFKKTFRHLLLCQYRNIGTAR
Description: Non-specific binding (NSB) was determined in the presence of 1 μM atropine). Reactions were terminated by rapid filtration onto GF/B filter paper (Whatman, Maidstone, UK) and three washes with 3 mL ice-cold 0.9% NaCl using a Brandel harvester (M-24TI; Brandel, Fort Lauderdale, FL). Membrane bound radioactivity was determined by liquid scintillation (Ultima Gold; PerkinElmer) counting.
Data was analyzed using PRISM (GraphPad). For saturation binding, non-specific and total binding data were analyzed to a one site binding model. DPM was converted to fmol/mg to compare across constructs. […] […] The Cheng Prusoff equation was used to estimate pKi ([Cheng and Prusoff, 1973]).

[1] = target: T2, M1-receptor (Gq/11 protein-coupling) in cortical membranes (Mus musculus, UniProt P12657); experiment: [35S]-GTPγS binding / Gq/11 protein-coupling in mouse cortical membranes; type: biochemical
T2 construct: Wild-type or M1-KO mice ([Bradley et al., 2017]) (8-12 weeks) were humanely killed and cortical tissue was dissected on ice; from tissue; host or cells: mouse cortex membranes
T2 sequence (P12657 1-460): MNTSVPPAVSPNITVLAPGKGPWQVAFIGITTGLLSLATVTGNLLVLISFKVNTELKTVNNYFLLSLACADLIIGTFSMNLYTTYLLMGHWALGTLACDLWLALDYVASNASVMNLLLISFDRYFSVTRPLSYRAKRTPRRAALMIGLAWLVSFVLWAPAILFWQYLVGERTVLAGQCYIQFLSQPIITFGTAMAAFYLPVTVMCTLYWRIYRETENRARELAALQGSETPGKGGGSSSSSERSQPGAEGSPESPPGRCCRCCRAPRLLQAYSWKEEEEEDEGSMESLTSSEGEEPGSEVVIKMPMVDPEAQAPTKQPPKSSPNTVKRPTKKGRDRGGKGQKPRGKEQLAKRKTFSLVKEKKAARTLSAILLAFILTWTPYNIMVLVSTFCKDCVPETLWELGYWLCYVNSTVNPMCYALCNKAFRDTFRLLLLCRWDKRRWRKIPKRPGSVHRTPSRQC
Description: Wild-type or M1-KO mice ([Bradley et al., 2017]) (8-12 weeks) were humanely killed and cortical tissue was dissected on ice. Tissue was suspended in ice-cold buffer A (containing 0.9% (w/v) NaCl, 10 mM HEPES, 0.2% (w/v) EDTA, pH 7.4) and homogenized (4 ×5s bursts) using a Polytron homogenizer. The suspension was centrifuged at 200 xg for 5 min at 4°C using an Eppendorf 5810R bench-top centrifuge. Supernatants were collected and re-homogenized as above. The suspension was subsequently centrifuged for 20 min at 40,000 xg at 4°C using a Beckman Coulter Avanti JXN-26 centrifuge with a JA-25.25 rotor. Supernatant was discarded, and the pellet was re-suspended in 10 mL ice-cold buffer B (10 mM HEPES, 10 mM EDTA, pH 7.4). The pellet was homogenized, GTP (1 mM final) was added and the suspension was incubated at 37° C for 15 min. The suspension was subsequently centrifuged for 20 min at 40,000 xg at 4°C and the pellet was re-suspended in 15 mL ice-cold buffer C (10 mM HEPES, 0.1 mM EDTA, pH 7.4) and re-homogenized as before. Suspension was centrifuged again for 20 min at 40,000 xg at 4°C. The final pellet was re-suspended in buffer C and protein concentration was estimated using a Bradford assay and this resuspended homogenate further diluted in buffer C to produce a concentration of 2 mg/mL. This preparation is the membrane preparation used in the [^35S]-GTPγS binding assay described below.
[^35S]-GTPγS binding and immunoprecipitation of Gα subunits was performed as previously described ([Bradley et al., 2017]). Specifically, wild-type or M1-KO membranes were diluted in assay buffer (in mM: HEPES, 10; NaCI, 100; MgCl2, 10; pH 7.4) containing a final concentration of 1 μM GDP. Membranes (75 μg in a total assay volume of […]) were added to [^35S]-GTPγS (1 μM final concentration) and agonists (CCh or CNO) and incubated at 30°C for 5 min. Reactions were terminated by the addition of 1 mL ice-cold assay buffer and immediate transfer to an ice bath. […] Recovered beads were then mixed with 1 mL FloScint-IV scintillation cocktail and counted by liquid scintillation spectrometry.

For `CCOC(=O)N1CCC[C@H](N2CCC(C(=O)NC3(C)CCC3)CC2)CC1` [HTL9936, ethyl (S)-4-(4-((1-methylcyclobutyl)carbamoyl)piperidin-1-yl)azepane-1-carboxylate], the Ki (M4-receptor) was 3.98 µM, the EC50 [1] was 2.5 µM and the “Gq/11 protein-coupling Emax” value ([1]; cortical membranes, wild-type mice, n = 3) was 76 % of the oxotremorine-M response. The “Gq/11 protein-coupling in M1-receptor KO membranes” value ([1]; membranes from M1-receptor KO animals) was “absent”.
